Experimental data published in US9573956B2, “Compounds as dual inhibitors of phosphodiesterases and histone deacetylases” (FUNDACIÓN PARA LA INVESTIGACIÓN MÉDICA APLICADA, priority 2013, dated 2017).

Assays:
PDE5A = biological target: T1, PDE5A (Homo sapiens, UniProt O76074); test: PDE enzyme activity assay (HTRF cGMP), PDE5A; format: biochemical; conditions: recombinant enzyme; read-out: PDE5A1 inhibition (IC50)
T1 construct: they are full-length with N-terminal GST tag; GST (N); purchased BPS Biosciences 60050; host or cells: baculovirus infected Sf9 cells

pCREB [1] = test: PDE activity in wild type primary neurons (Western blot pCREB); format: cell-based; conditions: Mus musculus, Neuron, 0.5 h, 30 min, EC50 = 50% increase in pCREB over basal
HDAC2 = biological target: T2, HDAC2 (Homo sapiens, UniProt Q92769); test: HDAC enzyme activity assay (fluorogenic substrate), HDAC2; format: biochemical; conditions: recombinant enzyme; read-out: HDAC2 inhibition (IC50)
T2 construct: NM_001527; Cat. #50002) is full-length with C-terminal his tag; His (C); purchased BPS Biosciences 50002; host or cells: baculovirus infected Sf9 cells

[2] = test system: acetylated histone 3 at Lys9 (AcH3K9); test: HDAC activity in wild type primary neurons (Western blot AcH3K9); format: cell-based, mouse; conditions: Mus musculus, Neuron, 0.5 h, 30 min, EC50 = 50% increase in AcH3K9 over basal, read-out: AcH3 (EC50)
HDAC6 = biological target: T3, HDAC6 (Homo sapiens, UniProt Q9UBN7); test: HDAC enzyme activity assay (fluorogenic substrate), HDAC6; format: biochemical; conditions: recombinant enzyme; read-out: HDAC6 inhibition (IC50)
T3 construct: BC069243; Cat. #50006) is full-length with N-terminal GST tag; GST (N); purchased BPS Biosciences 50006; host or cells: baculovirus infected Sf9 cells
T3 sequence (Q9UBN7 1-1215): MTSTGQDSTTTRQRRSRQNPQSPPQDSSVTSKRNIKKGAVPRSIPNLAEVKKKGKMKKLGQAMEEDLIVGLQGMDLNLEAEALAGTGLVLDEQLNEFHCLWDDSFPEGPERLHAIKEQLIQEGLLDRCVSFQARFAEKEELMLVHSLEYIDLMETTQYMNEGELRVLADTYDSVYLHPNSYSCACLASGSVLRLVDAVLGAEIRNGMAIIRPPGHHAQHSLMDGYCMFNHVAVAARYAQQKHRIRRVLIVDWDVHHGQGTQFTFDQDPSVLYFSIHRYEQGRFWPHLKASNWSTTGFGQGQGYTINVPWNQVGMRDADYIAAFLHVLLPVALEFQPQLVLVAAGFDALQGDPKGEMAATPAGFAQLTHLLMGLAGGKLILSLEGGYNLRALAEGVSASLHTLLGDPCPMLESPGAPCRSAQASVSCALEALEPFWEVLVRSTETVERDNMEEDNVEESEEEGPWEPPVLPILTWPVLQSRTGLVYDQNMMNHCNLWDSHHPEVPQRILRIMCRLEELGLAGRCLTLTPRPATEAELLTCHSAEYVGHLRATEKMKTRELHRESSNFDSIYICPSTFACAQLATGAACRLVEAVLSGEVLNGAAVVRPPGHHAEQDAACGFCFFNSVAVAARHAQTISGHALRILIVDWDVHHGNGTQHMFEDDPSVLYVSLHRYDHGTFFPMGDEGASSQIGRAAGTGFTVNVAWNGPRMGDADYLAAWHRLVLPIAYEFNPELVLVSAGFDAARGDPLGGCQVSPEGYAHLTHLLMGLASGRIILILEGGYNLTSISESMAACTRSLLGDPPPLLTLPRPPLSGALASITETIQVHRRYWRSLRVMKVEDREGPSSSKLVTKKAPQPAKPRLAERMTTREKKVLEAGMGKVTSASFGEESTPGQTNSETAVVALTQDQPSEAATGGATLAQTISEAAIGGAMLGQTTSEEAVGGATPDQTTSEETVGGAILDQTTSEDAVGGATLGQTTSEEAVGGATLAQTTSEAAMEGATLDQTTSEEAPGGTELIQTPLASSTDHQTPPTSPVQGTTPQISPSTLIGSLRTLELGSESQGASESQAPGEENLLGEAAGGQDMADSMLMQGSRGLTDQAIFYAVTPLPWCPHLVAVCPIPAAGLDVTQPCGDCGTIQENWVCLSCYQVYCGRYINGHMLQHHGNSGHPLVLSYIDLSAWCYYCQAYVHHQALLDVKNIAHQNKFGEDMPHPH

HDAC1 = HDAC1 (Homo sapiens, UniProt Q13547); test: HDAC enzyme activity assay (fluorogenic substrate), HDAC1; format: biochemical; conditions: recombinant enzyme; read-out: HDAC1 inhibition (IC50)
HDAC3 = biological target: T4, HDAC3 (Homo sapiens, UniProt O15379); test: HDAC enzyme activity assay (fluorogenic substrate), HDAC3; format: biochemical; conditions: recombinant enzyme; read-out: HDAC3 inhibition (IC50)
T4 construct: is full-length with C-terminal his tag and human NCOR2, N-terminal GST tag; His (C); purchased BPS Biosciences 50003; host or cells: baculovirus infected Sf9 cells

pCREB [3] = test: In-vivo activity, hippocampus of wild type mice: pCREB; design: species or system mouse; conditions: i.p. 40 mg/kg, hippocampus one hour later
Method: (§1) To determine the ability of the compounds to inhibit HDAC and PDE in the brain, the compound was administered to wild type mice by i.p. at a dose of 40 mg/kg (n=3). Another group of animals received the vehicle (1/1/8, v:v:v, DMSO/Tween 20/saline). One hour later, mice were sacrificed by cervical dislocation and their hippocampus was quickly dissected from the brains.
(§2) Total tissue homogenates were obtained by homogenizing the hippocampus in a cold lysis buffer with protease inhibitors (0.2 M NaCl, 0.1 M HEPES, 10% glycerol, 200 mM NaF, 2 mM Na4P2O7, 5 mM EDTA, 1 mM EGTA, 2 mM DTT, 0.5 mM PMSF, 1 mM Na3VO4 and Complete Protease Inhibitor Cocktail, Roche Diagnostics). The homogenate was then centrifuged at 14,000×g at 4° C. for 20 min and the supernatant aliquoted and stored at −80° C. Total protein concentrations were determined using the BioRad Bradford protein assay (BioRad Laboratories). Protein samples were analyzed as described in the “in vitro” section.

PDE9A isoform b = biological target: T5, PDE9A isoform b (Homo sapiens, UniProt O76083); test: PDE enzyme activity assay (HTRF cGMP), PDE9A; format: biochemical; conditions: recombinant enzyme; read-out: PDE9A inhibition (IC50)
T5 construct: they are full-length with N-terminal GST tag; GST (N); purchased BPS Biosciences 60090; host or cells: baculovirus infected Sf9 cells

AcH3 = test: In-vivo activity, hippocampus of wild type mice: AcH3; design: species or system mouse; conditions: i.p. 40 mg/kg, hippocampus one hour later
Method: as §1, §2

T2 sequence (Q92769 whole entry): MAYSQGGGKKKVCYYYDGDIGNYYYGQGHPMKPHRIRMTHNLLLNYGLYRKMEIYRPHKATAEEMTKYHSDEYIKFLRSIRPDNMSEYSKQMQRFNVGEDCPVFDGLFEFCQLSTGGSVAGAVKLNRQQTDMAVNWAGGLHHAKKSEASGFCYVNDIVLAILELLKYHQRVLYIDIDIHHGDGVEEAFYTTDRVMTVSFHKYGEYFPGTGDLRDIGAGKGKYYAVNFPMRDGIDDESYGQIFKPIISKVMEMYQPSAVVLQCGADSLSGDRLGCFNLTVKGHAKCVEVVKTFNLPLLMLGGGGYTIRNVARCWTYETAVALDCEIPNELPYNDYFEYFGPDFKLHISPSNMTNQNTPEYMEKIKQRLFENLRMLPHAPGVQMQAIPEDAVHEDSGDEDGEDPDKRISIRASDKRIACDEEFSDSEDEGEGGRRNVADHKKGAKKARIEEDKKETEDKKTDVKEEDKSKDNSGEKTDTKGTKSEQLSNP
T4 sequence (O15379 whole entry): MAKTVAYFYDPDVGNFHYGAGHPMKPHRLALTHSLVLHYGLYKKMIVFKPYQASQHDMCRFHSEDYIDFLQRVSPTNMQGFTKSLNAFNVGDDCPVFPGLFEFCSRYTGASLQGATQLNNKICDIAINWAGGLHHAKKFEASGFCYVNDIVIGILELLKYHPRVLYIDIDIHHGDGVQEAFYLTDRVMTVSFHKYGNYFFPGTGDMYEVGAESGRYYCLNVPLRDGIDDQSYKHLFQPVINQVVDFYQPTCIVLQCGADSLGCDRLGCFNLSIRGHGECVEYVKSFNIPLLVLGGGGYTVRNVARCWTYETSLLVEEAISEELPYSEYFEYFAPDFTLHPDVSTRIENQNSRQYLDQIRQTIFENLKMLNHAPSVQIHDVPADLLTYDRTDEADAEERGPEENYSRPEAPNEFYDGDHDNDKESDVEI
T4 sequence (Q9Y618 395-489 partner limits assumed): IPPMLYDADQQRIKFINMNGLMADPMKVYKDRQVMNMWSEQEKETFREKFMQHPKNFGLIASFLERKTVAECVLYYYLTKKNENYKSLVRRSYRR
HDAC1, sequence (Q13547 whole entry): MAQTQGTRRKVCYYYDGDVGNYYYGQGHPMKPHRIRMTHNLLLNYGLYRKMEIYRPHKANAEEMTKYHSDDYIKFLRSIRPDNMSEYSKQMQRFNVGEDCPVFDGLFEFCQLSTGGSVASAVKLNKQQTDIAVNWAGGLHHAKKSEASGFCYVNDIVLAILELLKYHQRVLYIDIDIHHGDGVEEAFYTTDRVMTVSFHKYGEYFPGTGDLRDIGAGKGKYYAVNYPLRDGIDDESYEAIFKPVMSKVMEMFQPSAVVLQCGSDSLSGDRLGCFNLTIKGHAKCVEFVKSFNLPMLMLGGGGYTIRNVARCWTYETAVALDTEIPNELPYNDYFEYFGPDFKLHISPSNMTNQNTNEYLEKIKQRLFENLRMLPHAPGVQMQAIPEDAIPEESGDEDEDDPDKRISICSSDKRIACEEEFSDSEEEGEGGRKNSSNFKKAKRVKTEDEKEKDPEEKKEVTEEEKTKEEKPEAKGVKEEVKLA
T5 sequence (O76083 1-533 isoform O76083-2): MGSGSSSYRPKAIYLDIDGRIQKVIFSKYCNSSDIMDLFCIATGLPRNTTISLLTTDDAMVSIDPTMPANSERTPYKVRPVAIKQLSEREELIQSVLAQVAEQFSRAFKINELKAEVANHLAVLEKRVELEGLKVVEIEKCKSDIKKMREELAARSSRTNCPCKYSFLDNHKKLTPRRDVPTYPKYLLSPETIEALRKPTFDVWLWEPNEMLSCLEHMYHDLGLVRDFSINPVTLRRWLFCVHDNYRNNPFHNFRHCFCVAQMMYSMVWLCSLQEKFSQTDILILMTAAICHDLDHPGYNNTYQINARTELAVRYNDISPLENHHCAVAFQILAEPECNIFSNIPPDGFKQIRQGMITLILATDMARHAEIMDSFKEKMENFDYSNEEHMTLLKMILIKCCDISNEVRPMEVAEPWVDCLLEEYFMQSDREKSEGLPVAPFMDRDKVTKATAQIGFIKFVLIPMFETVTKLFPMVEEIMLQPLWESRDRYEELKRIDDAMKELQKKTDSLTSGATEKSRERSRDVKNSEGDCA

Row | Compound | IC50 (PDE5A) | EC50 (pCREB [1]) | IC50 (HDAC2) | EC50 [2] | IC50 (HDAC6) | IC50 (HDAC1) | IC50 (HDAC3) | pCREB, increment in biological response vs basal (pCREB [3]) | IC50 (PDE9A isoform b) | AcH3, increment in biological response vs basal (AcH3)
1 | CCCc1nc(C)c2c(=O)[nH]c(-c3cc(CC4CC(C(=O)NO)C4)ccc3OCC)nn12 (stereo not shown) [Example 2-07, 3-[[4-ethoxy-3-(5-methyl-4-oxo-7-propyl-3H-imidazo[5,1-f][1,2,4]triazin-2-yl)phenyl]methyl]cyclobutanecarbohydroxamic acid] | < 10 nM | 10 to 1000 nM | 1000 to 10000 nM | 10 to 1000 nM | 10 to 1000 nM | 10 to 1000 nM | – | – | – | –
2 | CCCc1nn(C)c2c(=O)[nH]c(-c3cc(CN4CCN(c5ncc(C(=O)NO)cn5)CC4)ccc3OCC)nc12 [Example 1-48, 2-[4-[[4-ethoxy-3-(1-methyl-7-oxo-3-propyl-6H-pyrazolo[4,3-d]pyrimidin-5-yl)phenyl]methyl]piperazin-1-yl]pyrimidine-5-carbohydroxamic acid] | < 10 nM | 10 to 1000 nM | 10 to 1000 nM | 10 to 1000 nM | 10 to 1000 nM | 10 to 1000 nM | – | – | – | –
3 | CCCc1nn(C)c2c(=O)[nH]c(-c3cc(CC4CCN(c5ncc(C(=O)NO)cn5)CC4)ccc3OCC)nc12 [Example 1-24, 2-[4-[[4-ethoxy-3-(1-methyl-7-oxo-3-propyl-6H-pyrazolo[4,3-d]pyrimidin-5-yl)phenyl]methyl]-1-piperidyl]pyrimidine-5-carbohydroxamic acid] | < 10 nM | – | 10 to 1000 nM | – | 1000 to 10000 nM | 10 to 1000 nM | 10 to 1000 nM | – | – | –
4 | CCCc1nn(C)c2c(=O)[nH]c(-c3cc(-c4ccc(C(=O)NO)cc4)ccc3OCC)nc12 [Example 1-30] | < 10 nM | 10 to 1000 nM | 1000 to 10000 nM | 10 to 1000 nM | 10 to 1000 nM | 10 to 1000 nM | – | – | – | –
5 | O=C(CCCCCCC(=O)Nc1ccccc1)NO [Vorinostat, reference compound] | > 10000 nM | – | – | – | – | – | – | N.E. (N.E. means No Effect) | > 10000 nM | +++ (basal×2≦(+++)<basal×3)
6 | CCCc1nn(C)c2c(=O)[nH]c(-c3cc(Cc4ccc(C(=O)NO)o4)ccc3OCC)nc12 [Example 1-17] | < 10 nM | – | > 10000 nM | – | 10 to 1000 nM | 1000 to 10000 nM | > 10000 nM | – | – | –
7 | CCCc1nn(C)c2c(=O)[nH]c(-c3cc(NC4CCN(c5ncc(C(=O)NO)cn5)CC4)ccc3OCC)nc12 [Example 1-22, 2-[4-[4-ethoxy-3-(1-methyl-7-oxo-3-propyl-6H-pyrazolo[4,3-d]pyrimidin-5-yl)anilino]-1-piperidyl]pyrimidine-5-carbohydroxamic acid] | < 10 nM | – | 10 to 1000 nM | – | 10 to 1000 nM | 10 to 1000 nM | 10 to 1000 nM | – | – | –
8 | CCCc1nn(C)c2c(=O)[nH]c(-c3cc(Cc4ccc(CC(=O)NO)cc4)ccc3OCC)nc12 [Example 1-18] | 10 to 1000 nM | – | > 10000 nM | – | 10 to 1000 nM | > 10000 nM | > 10000 nM | – | – | –
9 | CCCc1nn(C)c2c(=O)[nH]c(-c3cc(C4CCC(C(=O)NO)CC4)ccc3OCC)nc12 (stereo not shown) [Example 1-40, 4-[4-ethoxy-3-(1-methyl-7-oxo-3-propyl-6H-pyrazolo[4,3-d]pyrimidin-5-yl)phenyl]cyclohexanecarbohydroxamic acid] | 10 to 1000 nM | 1000 to 10000 nM | > 10000 nM | 10 to 1000 nM | 10 to 1000 nM | 1000 to 10000 nM | – | – | – | –
10 | CCCc1nn(C)c2c(=O)[nH]c(-c3cc(CC4CCC(C(=O)NO)CC4)ccc3OCC)nc12 (stereo not shown) [Example 1-29, 4-[[4-ethoxy-3-(1-methyl-7-oxo-3-propyl-6H-pyrazolo[4,3-d]pyrimidin-5-yl)phenyl]methyl]cyclohexanecarbohydroxamic acid] | 10 to 1000 nM | 1000 to 10000 nM | > 10000 nM | 1000 to 10000 nM | 10 to 1000 nM | 10 to 1000 nM | – | – | – | –
11 | CCCc1nn(C)c2c(=O)[nH]c(-c3cc(S(=O)(=O)NC4CCN(c5ncc(C(=O)NO)cn5)CC4)ccc3OCC)nc12 [Example 1-07] | < 10 nM | – | 10 to 1000 nM | – | 10 to 1000 nM | 10 to 1000 nM | 10 to 1000 nM | – | 1000 to 10000 nM | –
12 | CCCc1nn(C)c2c(=O)[nH]c(-c3cc(N(C)C4CCN(c5ncc(C(=O)NO)cn5)CC4)ccc3OCC)nc12 [Example 1-25] | < 10 nM | 1000 to 10000 nM | 10 to 1000 nM | 10 to 1000 nM | 10 to 1000 nM | 10 to 1000 nM | 10 to 1000 nM | – | – | –
